For 33 compounds, IC50 results are on record in patent publication US8076338B2, “Kinase modulators and methods of use” (Exelixis, Inc., priority 2004, dated 2011).

The target of one assay is AktK (Homo sapiens, UniProt P31749). As to the kind of experiment: Luciferase-coupled chemiluminescence kinase assay (ATP consumption). In kind it is biochemical. Conditions: Table 1; class symbols per key; read-out: AKT-1 IC50. The gist of the method: (§1)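 Enzyme at 2.5-5 nM was preincubated 30 min at room temperature with compound in Tris pH 7.5, MgCl2, TX-100, DTT, then reacted with ATP for 3 h at ambient temperature. Remaining ATP was quantified by luciferase-luciferin chemiluminescence, with consumption kept at 25-60%; […].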
Chain of AktK (P31749 whole entry): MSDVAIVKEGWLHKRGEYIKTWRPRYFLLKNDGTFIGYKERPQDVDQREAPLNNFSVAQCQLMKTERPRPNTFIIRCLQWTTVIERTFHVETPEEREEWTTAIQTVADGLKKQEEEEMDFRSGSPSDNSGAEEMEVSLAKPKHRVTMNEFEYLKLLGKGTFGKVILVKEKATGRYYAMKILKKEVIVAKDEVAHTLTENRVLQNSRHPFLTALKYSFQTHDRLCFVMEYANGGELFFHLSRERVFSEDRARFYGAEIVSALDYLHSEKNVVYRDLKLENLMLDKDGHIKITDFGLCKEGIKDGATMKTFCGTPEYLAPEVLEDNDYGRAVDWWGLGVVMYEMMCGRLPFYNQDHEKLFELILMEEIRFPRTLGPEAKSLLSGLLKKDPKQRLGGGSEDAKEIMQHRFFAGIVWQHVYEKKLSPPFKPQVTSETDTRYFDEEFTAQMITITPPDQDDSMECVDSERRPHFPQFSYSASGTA

In the next assay the target is p70S6K (Homo sapiens, UniProt P23443). The assay is described as above. Type of assay: biochemical. To be noted: Table 1; class symbols per key. The gist of the method: as §1
Chain of p70S6K (P23443 whole entry): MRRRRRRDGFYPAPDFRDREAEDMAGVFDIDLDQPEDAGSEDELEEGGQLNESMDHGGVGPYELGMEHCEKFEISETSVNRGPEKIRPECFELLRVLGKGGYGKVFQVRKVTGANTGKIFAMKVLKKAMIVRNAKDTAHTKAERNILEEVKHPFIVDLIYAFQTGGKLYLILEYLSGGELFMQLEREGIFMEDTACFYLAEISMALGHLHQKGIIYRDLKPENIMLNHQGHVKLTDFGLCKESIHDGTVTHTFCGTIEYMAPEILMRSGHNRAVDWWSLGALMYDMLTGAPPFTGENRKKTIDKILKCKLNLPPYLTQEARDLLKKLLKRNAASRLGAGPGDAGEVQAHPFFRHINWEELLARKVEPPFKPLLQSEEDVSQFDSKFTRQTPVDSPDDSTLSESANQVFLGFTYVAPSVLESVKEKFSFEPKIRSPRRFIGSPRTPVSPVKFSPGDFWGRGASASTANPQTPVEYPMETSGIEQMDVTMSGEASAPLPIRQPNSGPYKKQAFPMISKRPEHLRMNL

Consider `Cc1c(OCCC2CCN(C)CC2)cc(Cl)cc1N1CCN(c2ncnc3[nH]nc(C(F)(F)F)c23)CC1` [Entry 91, 4-[4-(5-chloro-2-methyl-3-{[2-(1-methylpiperidin-4-yl)ethyl]oxy}phenyl)piperazin-1-yl]-3-(tri-fluoromethyl)-1H-pyrazolo[3,4-d]pyrimidine], for which the IC50 on AktK was 0.1 to 1 µM; on p70S6K, less than 0.1 µM.
The like results for `Cc1c(CCCN2CCN(C)CC2)cc(Cl)cc1N1CCN(c2ncnc3[nH]nc(C(F)(F)F)c23)CC1` [Entry 92, 4-(4-{5-chloro-2-methyl-3-[3-(4-methylpiperazin-1-yl)propyl]phenyl}piperazin-1-yl)-3-(trifluoro-methyl)-1H-pyrazolo[3,4-d]pyrimidine] were, in that order, 0.1 to 1 µM and less than 0.1 µM.
Taken in the same sequence, the figures for `Fc1ccc(N2CCN(c3ncnc4[nH]nc(Br)c34)CC2)cc1Cl` [Entry 93, 3-bromo-4-[4-(3-chloro-4-fluorophenyl)piperazin-1-yl]-1H-pyrazolo[3,4-d]pyrimidine] were 1 to 10 µM and less than 0.1 µM.
Taken in the same sequence, the figures for `CC(=O)c1ccc(N2CCN(c3ncnc4[nH]nc(Br)c34)CC2)cc1` [Entry 94, 1-{4-[4-(3-bromo-1H-pyrazolo[3,4-d]pyrimidin-4-yl)piperazin-1-yl]phenyl}ethanone] were 1 to 10 µM and 0.1 to 1 µM.
For `Clc1ccc(Cl)c(N2CCN(c3ncnc4[nH]nc(Br)c34)CC2)c1` [Entry 95, 3-bromo-4-[4-(2,5-dichlorophenyl)piperazin-1-yl]-1H-pyrazolo[3,4-d]pyrimidine], the concentration for half-maximal inhibition (IC50) was not below 10 µM on AktK and less than 0.1 µM against p70S6K.
Taken in the same sequence, the figures for `Cc1ccc(N2CCN(c3ncnc4[nH]nc(Br)c34)CC2)cc1C` [Entry 96, 3-bromo-4-[4-(3,4-dimethylphenyl)piperazin-1-yl]-1H-pyrazolo[3,4-d]pyrimidine] were not below 10 µM and 0.1 to 1 µM.
For the compound `O=[N+]([O-])c1ccc(N2CCN(c3ncnc4[nH]nc(Br)c34)CC2)cc1` [Entry 97, 3-bromo-4-[4-(4-nitrophenyl)piperazin-1-yl]-1H-pyrazolo[3,4-d]pyrimidine], the IC50 on AktK was not below 10 µM; against p70S6K, 0.1 to 1 µM.
The like results for `CCc1n[nH]c2ncnc(N3CCN(c4ccccc4)CC3)c12` [Entry 98, 3-ethyl-4-(4-phenylpiperazin-1-yl)-1H-pyrazolo[3,4-d]pyrimidine] were, in that order, not below 10 µM and 0.1 to 1 µM.
Taken in the same sequence, the figures for `CCc1n[nH]c2ncnc(N3CCN(c4cccc(OC)c4)CC3)c12` [Entry 99, 3-ethyl-4-{4-[3-(methyloxy)phenyl]piperazin-1-yl}-1H-pyrazolo[3,4-d]pyrimidine] were not below 10 µM and 0.1 to 1 µM.
The like results for `Cc1c(CCCN2CCCCC2)cc(Cl)cc1N1CCN(c2ncnc3[nH]nc(C(F)(F)F)c23)CC1` [Entry 100, 4-{4-[5-chloro-2-methyl-3-(3-piperidin-1-ylpropyl)phenyl]piperazin-1-yl}-3-(trifluoromethyl)-1H-pyrazolo[3,4-d]pyrimidine] were, in that order, 0.1 to 1 µM and less than 0.1 µM.
Regarding `CCc1n[nH]c2ncnc(N3CCN(c4nc(C)cnc4C)CC3)c12` [Entry 101, 4-[4-(3,6-dimethylpyrazin-2-yl)piperazin-1-yl]-3-ethyl-1H-pyrazolo[3,4-d]pyrimidine], the 50% inhibitory concentration (IC50) on AktK is not below 10 µM; against p70S6K it was 0.1 to 1 µM.
Taken in the same sequence, the figures for `CCc1n[nH]c2ncnc(N3CCN(c4nccc5ccccc45)CC3)c12` [Entry 102, 1-[4-(3-ethyl-1H-pyrazolo[3,4-d]pyrimidin-4-yl)piperazin-1-yl]isoquinoline] were not below 10 µM and less than 0.1 µM.
With `Cc1cccc(C)c1N1CCN(c2ncnc3[nH]nc(Br)c23)CC1` [Entry 103, 3-bromo-4-[4-(2,6-dimethylphenyl)piperazin-1-yl]-1H-pyrazolo[3,4-d]pyrimidine], the IC50 at AktK was not below 10 µM; at p70S6K, 0.1 to 1 µM.
Consider `CCOc1ccc(N2CCN(c3ncnc4[nH]nc(Br)c34)CC2)cc1` [Entry 104, 3-bromo-4-{4-[4-(ethyloxy)phenyl]piperazin-1-yl}-1H-pyrazolo[3,4-d]pyrimidine], for which the values for the IC50 on AktK and at p70S6K were not below 10 µM and 0.1 to 1 µM, respectively.
The like results for `CCc1ccccc1N1CCN(c2ncnc3[nH]nc(Br)c23)CC1` [Entry 105, 3-bromo-4-[4-(2-ethylphenyl)piperazin-1-yl]-1H-pyrazolo[3,4-d]pyrimidine] were, in that order, not below 10 µM and 0.1 to 1 µM.
In the case of `COc1ccc(N2CCN(c3ncnc4[nH]nc(Br)c34)CC2)c(OC)c1` [Entry 106, 4-{4-[2,4-bis(methyloxy)phenyl]piperazin-1-yl}-3-bromo-1H-pyrazolo[3,4-d]pyrimidine], the IC50 on AktK was not below 10 µM; against p70S6K, 0.1 to 1 µM.
For `Brc1n[nH]c2ncnc(N3CCN(c4cnccn4)CC3)c12` [Entry 107, 3-bromo-4-(4-pyrazin-2-ylpiperazin-1-yl)-1H-pyrazolo[3,4-d]pyrimidine], the IC50 is not below 10 µM on AktK and 0.1 to 1 µM against p70S6K.
Take `Brc1n[nH]c2ncnc(N3CCN(c4ncccn4)CC3)c12` [Entry 108, 3-bromo-4-(4-pyrimidin-2-ylpiperazin-1-yl)-1H-pyrazolo[3,4-d]pyrimidine]: the figures for the IC50 at AktK and against p70S6K were not below 10 µM and 0.1 to 1 µM, respectively.
Regarding `FC(F)(F)c1cc(N2CCN(c3ncnc4[nH]nc(Br)c34)CC2)c2ccccc2n1` [Entry 109, 4-[4-(3-bromo-1H-pyrazolo[3,4-d]pyrimidin-4-yl)piperazin-1-yl]-2-(trifluoromethyl)quinoline], the IC50 on AktK was not below 10 µM; against p70S6K, less than 0.1 µM.
As for `N#Cc1nccnc1N1CCN(c2ncnc3[nH]nc(Br)c23)CC1` [Entry 110, 3-[4-(3-bromo-1H-pyrazolo[3,4-d]pyrimidin-4-yl)piperazin-1-yl]pyrazine-2-carbonitrile], the results for the IC50 on AktK and against p70S6K were not below 10 µM and 0.1 to 1 µM, respectively.
Taken in the same sequence, the figures for `CCc1n[nH]c2ncnc(N3CCN(c4nc(C)cc(C)n4)CC3)c12` [Entry 111, 4-[4-(4,6-dimethylpyrimidin-2-yl)piperazin-1-yl]-3-ethyl-1H-pyrazolo[3,4-d]pyrimidine] were not below 10 µM and 1 to 10 µM.
The like results for `CCOC(=O)c1cnc(C(F)(F)F)nc1N1CCN(c2ncnc3[nH]nc(CC)c23)CC1` [Entry 112, ethyl 4-[4-(3-ethyl-1H-pyrazolo[3,4-d]pyrimidin-4-yl)piperazin-1-yl]-2-(trifluoromethyl)pyrimidine-5-carboxylate] were, in that order, not below 10 µM and 1 to 10 µM.
Turning to `CCc1n[nH]c2ncnc(N3CCN(c4cc(Cl)cc(OC)c4)CC3)c12` [Entry 113, 4-{4-[3-chloro-5-(methyloxy)phenyl]piperazin-1-yl}-3-ethyl-1H-pyrazolo[3,4-d]pyrimidine], the values for the IC50 on AktK and against p70S6K were not below 10 µM and less than 0.1 µM, respectively.
With `CCc1n[nH]c2ncnc(N3CCN(c4cc(F)cc(Br)c4Cl)CC3)c12` [Entry 114, 4-[4-(3-bromo-2-chloro-5-fluorophenyl)piperazin-1-yl]-3-ethyl-1H-pyrazolo[3,4-d]pyrimidine], the half-inhibitory concentration (IC50) was not below 10 µM on AktK and 0.1 to 1 µM on p70S6K.
Take `CCc1n[nH]c2ncnc(N3CCN(c4ncccc4C(N)=O)CC3)c12` [Entry 115, 2-[4-(3-ethyl-1H-pyrazolo[3,4-d]pyrimidin-4-yl)piperazin-1-yl]pyridine-3-carboxamide]: the half-inhibitory concentration (IC50) at AktK was not below 10 µM; on p70S6K it was 0.1 to 1 µM.
The like results for `CCc1n[nH]c2ncnc(N3CCN(c4cc(C(F)(F)F)ccn4)CC3)c12` [Entry 116, 3-ethyl-4-{4-[4-(trifluoromethyl)pyridin-2-yl]piperazin-1-yl}-1H-pyrazolo[3,4-d]pyrimidine] were, in that order, not below 10 µM and 0.1 to 1 µM.
On to `FC(F)(F)c1ccnc(N2CCN(c3ncnc4[nH]nc(Br)c34)CC2)c1` [Entry 117, 3-bromo-4-{4-[4-(trifluoromethyl)pyridin-2-yl]piperazin-1-yl}-1H-pyrazolo[3,4-d]pyrimidine], for which the 50% inhibitory concentration (IC50) on AktK was not below 10 µM; on p70S6K, 0.1 to 1 µM.
For `FC(F)(F)c1ccnc(N2CCN(c3ncnc4[nH]nc(Br)c34)CC2)n1` [Entry 118, 3-bromo-4-{4-[4-(trifluoromethyl)pyrimidin-2-yl]piperazin-1-yl}-1H-pyrazolo[3,4-d]pyrimidine], the results for the IC50 on AktK and on p70S6K were not below 10 µM and 0.1 to 1 µM, respectively.
For `CN(C)CCOc1nccnc1N1CCN(c2ncnc3[nH]nc(Br)c23)CC1` [Entry 119, 2-({3-[4-(3-bromo-1H-pyrazolo[3,4-d]pyrimidin-4-yl)piperazin-1-yl]pyrazin-2-yl}oxy)-N,N-dimethylethanamine], the half-maximal inhibitory concentration (IC50) on AktK was 1 to 10 µM; against p70S6K, 0.1 to 1 µM.
The like results for `Cc1cc(N2CCN(c3ncnc4[nH]nc(Br)c34)CC2)c2ccccc2n1` [Entry 120, 4-[4-(3-bromo-1H-pyrazolo[3,4-d]pyrimidin-4-yl)piperazin-1-yl]-2-methylquinoline] were, in that order, not below 10 µM and less than 0.1 µM.
Taken in the same sequence, the figures for `O=[N+]([O-])c1ccccc1N1CCN(c2ncnc3[nH]nc(Br)c23)CC1` [Entry 121, 3-bromo-4-[4-(2-nitrophenyl)piperazin-1-yl]-1H-pyrazolo[3,4-d]pyrimidine] were not below 10 µM and 0.1 to 1 µM.
Taken in the same sequence, the figures for `N#Cc1ccccc1N1CCN(c2ncnc3[nH]nc(Br)c23)CC1` [Entry 122, 2-[4-(3-bromo-1H-pyrazolo[3,4-d]pyrimidin-4-yl)piperazin-1-yl]benzonitrile] were not below 10 µM and 0.1 to 1 µM.
Take `N#Cc1ccc(N2CCN(c3ncnc4[nH]nc(Br)c34)CC2)cc1` [Entry 123, 4-[4-(3-bromo-1H-pyrazolo[3,4-d]pyrimidin-4-yl)piperazin-1-yl]benzonitrile]: the half-maximal inhibitory concentration (IC50) is not below 10 µM on AktK and less than 0.1 µM against p70S6K.
